From ChEMBL document CHEMBL4619778, “Oligopeptides as Neuropeptide Y Y4 Receptor Ligands: Identification of a High-Affinity Tetrapeptide Agonist and a Hexapeptide Antagonist” (J Med Chem, 2020)
Bridge positions count the residues as written; N and C are the ends. Square brackets hold non-standard residues; d marks the D form. Peptide text beside a SMILES is read from it. I, II: the chains in the order shown. ξ: configuration not given here. ξDap = NCC(N)C(=O)O

How the values were obtained:
[1] = biological target: T1, Neuropeptide Y receptor type 4 (Homo sapiens, UniProt P50391); assay: Agonist activity at human Y4R expressed in HEK293T cells co-expressing ARRB2 assessed as induction of beta-arrestin2 recruitment measured for 40 mins by D-luciferin based luminescence assay; assay type: cell-based, HEK-293T
[2] = biological target: T1, Neuropeptide Y receptor type 4; assay: Displacement of [3H]UR-KK200 from human Y4 receptor expressed in CHO cells co-expressing Gqi5-mtAEQ measured after 90 mins by scintillation counting analysis; assay type: cell-based
[3] = biological target: T1, Neuropeptide Y receptor type 4; assay: Agonist activity at human Y4R expressed in HEK293T cells co-expressing ARRB1 assessed as induction of beta-arrestin1 recruitment measured for 40 mins by D-luciferin based luminescence assay; assay type: cell-based, HEK-293T
[4] = biological target: T1, Neuropeptide Y receptor type 4; assay: Agonist activity at human Y4 receptor expressed in CHO cells co-expressing Gqi5-mtAEQ assessed as intracellular calcium mobilization measured for 43 secs in presence of coelenterazine by aequorin-reporter gene based luminescence assay; assay type: functional, cell-based
Homo sapiens [5] = species on record: Homo sapiens; assay: Selectivity ratio of Ki for displacement of [3H]propionyl-pNPY from human Y2 receptor expressed in CHO cells to Ki for displacement of [3H]UR-KK200 from human Y4 receptor expressed in CHO cells co-expressing Gqi5-mtAEQ; assay type: cell-based
[6] = biological target: T2, Neuropeptide Y receptor type 2 (Homo sapiens, UniProt P49146); assay: Displacement of [3H]propionyl-pNPY from human Y2 receptor expressed in CHO cells measured after 2 hrs by microbeta liquid scintillation counting analysis; assay type: cell-based
T2 sequence (P49146 whole entry): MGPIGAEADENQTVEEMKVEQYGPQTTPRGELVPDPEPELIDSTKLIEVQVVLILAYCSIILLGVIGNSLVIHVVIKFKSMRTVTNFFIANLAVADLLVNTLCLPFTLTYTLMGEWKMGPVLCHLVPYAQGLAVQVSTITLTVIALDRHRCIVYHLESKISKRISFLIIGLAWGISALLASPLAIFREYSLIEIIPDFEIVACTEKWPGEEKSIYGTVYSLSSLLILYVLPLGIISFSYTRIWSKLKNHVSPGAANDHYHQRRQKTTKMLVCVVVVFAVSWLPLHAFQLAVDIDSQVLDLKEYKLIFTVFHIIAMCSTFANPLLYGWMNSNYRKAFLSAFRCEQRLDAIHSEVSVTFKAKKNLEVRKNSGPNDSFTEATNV

Homo sapiens [7] = species on record: Homo sapiens; assay: Selectivity ratio of Ki for displacement of [3H]propionyl-pNPY from human Y5 receptor expressed in human HEC1B cells to Ki for displacement of [3H]UR-KK200 from human Y4 receptor expressed in CHO cells co-expressing Gqi5-mtAEQ; assay type: cell-based
[8] = biological target: T3, Neuropeptide Y receptor type 5 (Homo sapiens, UniProt Q15761); assay: Displacement of [3H]propionyl-pNPY from human Y5 receptor expressed in human HEC1B cells; assay type: cell-based
T3 sequence (Q15761 whole entry): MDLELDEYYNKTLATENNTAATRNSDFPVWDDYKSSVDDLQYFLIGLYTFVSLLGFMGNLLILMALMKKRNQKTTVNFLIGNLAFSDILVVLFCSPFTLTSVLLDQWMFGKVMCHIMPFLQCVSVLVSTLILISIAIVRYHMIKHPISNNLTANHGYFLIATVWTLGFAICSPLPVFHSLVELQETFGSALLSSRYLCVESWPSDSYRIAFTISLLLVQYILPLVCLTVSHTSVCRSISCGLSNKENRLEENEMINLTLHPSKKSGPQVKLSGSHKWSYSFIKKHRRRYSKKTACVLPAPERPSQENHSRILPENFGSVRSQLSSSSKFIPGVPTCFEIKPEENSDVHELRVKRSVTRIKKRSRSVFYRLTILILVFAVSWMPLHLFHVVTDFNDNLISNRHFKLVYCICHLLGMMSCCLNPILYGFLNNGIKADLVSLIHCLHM

Homo sapiens [9] = species on record: Homo sapiens; assay: Selectivity ratio of Ki for displacement of [3H]UR-MK299 from Y1 receptor in human SK-N-MC cells to Ki for displacement of [3H]UR-KK200 from human Y4 receptor expressed in CHO cells co-expressing Gqi5-mtAEQ; assay type: cell-based
[10] = biological target: T4, Neuropeptide Y receptor type 1 (Homo sapiens, UniProt P25929); assay: Displacement of [3H]UR-MK299 from Y1 receptor in human SK-N-MC cells; assay type: cell-based
T4 sequence (P25929 whole entry): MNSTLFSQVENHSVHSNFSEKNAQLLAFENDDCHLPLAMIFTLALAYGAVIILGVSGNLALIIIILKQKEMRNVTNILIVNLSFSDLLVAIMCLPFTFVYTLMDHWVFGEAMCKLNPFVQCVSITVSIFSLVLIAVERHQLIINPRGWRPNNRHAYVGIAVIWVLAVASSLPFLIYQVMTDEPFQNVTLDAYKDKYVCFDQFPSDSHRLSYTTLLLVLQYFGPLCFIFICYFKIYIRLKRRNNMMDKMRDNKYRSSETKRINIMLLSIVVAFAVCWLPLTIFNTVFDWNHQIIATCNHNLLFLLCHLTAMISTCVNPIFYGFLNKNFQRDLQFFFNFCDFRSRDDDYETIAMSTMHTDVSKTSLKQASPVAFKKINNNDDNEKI

T1 sequence (P50391 whole entry): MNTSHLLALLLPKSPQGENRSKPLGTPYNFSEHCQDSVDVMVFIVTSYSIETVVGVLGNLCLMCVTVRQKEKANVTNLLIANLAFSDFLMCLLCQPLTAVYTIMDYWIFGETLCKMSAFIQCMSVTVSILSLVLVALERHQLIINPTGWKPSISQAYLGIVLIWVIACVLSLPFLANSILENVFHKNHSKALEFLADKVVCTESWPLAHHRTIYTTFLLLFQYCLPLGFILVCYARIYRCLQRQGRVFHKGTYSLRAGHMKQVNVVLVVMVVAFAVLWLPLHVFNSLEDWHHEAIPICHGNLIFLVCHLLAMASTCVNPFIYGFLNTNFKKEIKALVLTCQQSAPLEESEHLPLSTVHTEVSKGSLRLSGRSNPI

Row | Compound | EC50 ([1]; read-out: EC50) [nM] | EC50 ([1]; read-out: pEC50 (converted)) [nM] | Ki ([2]; read-out: Ki) [nM] | Ki ([2]; read-out: pKi (converted)) [nM] | EC50 ([3]; read-out: EC50) [nM] | EC50 ([3]; read-out: pEC50 (converted)) [nM] | EC50 ([4]; read-out: EC50) [nM] | EC50 ([4]; read-out: pEC50 (converted)) [nM] | Ratio Ki (Homo sapiens [5]) | Ki ([6]; read-out: Ki) [nM] | Ki ([6]; read-out: pKi (converted)) [nM] | Ratio Ki (Homo sapiens [7]) | Ki ([8]; read-out: Ki) [nM] | Ki ([8]; read-out: pKi (converted)) [nM] | Ratio Ki (Homo sapiens [9]) | Ki ([10]; read-out: Ki) [nM] | Ki ([10]; read-out: pKi (converted)) [nM] | Ki ([6]; cho, read-out: Ki) [nM] | Ki ([10]; sk-n-mc, read-out: Ki) [nM]
1 | H-RYRARY-NH2 | > 30000 | > 31600 | 240 | 229 | > 30000 | > 31600 | > 30000 | > 31600 | – | – | – | – | – | – | – | – | – | – | –
2 | CC(C)C[C@H](NC(=O)[C@H](CCCNC(=N)N)NC(=O)[C@H](Cc1ccc(O)cc1)NC(=O)[C@@H](N)CCCNC(N)=O)C(=O)N[C@@H](CCCNC(=N)N)C(=O)N[C@@H](Cc1ccc(O)cc1)C(N)=O | 150 | – | 4.8 | 4.47 | 100 | – | – | – | > 630 | > 3000 | > 3160 | > 2100 | > 10000 | > 10000 | > 630 | > 3000 | > 3160 | – | –
3 | CC(=O)N[C@@H](CCCNC(=N)N)C(=O)N[C@@H](Cc1c[nH]c2ccccc12)C(=O)N[C@@H](CCCNC(=N)N)C(=O)N[C@@H](CC(C)C)C(=O)N[C@@H](CCCNC(=N)N)C(=O)N[C@@H](Cc1ccc(O)cc1)C(N)=O | 35 | – | 1.4 | – | 67 | – | 120 | – | > 710 | – | > 1000 | > 710 | > 1000 | > 1000 | > 710 | – | > 1000 | > 1000 | > 1000
4 | Ac-RYRPRY-NH2 | > 30000 | > 31600 | 1800 | – | > 30000 | > 31600 | > 30000 | > 31600 | – | – | – | – | – | – | – | – | – | – | –
5 | CC(C)C[C@H](NC(=O)[C@@H](N)CCCNC(=N)N)C(=O)N[C@H](CCCNC(=N)N)C(=O)N[C@@H](Cc1ccc(O)cc1)C(N)=O | > 30000 | > 31600 | 1300 | – | > 30000 | > 31600 | – | – | – | – | – | – | – | – | – | – | – | – | –
6 | CC[C@H](C)[C@H](N)C(=O)N[C@H]1CCC(=O)NCC(C(=O)N[C@@H](Cc2ccc(O)cc2)C(=O)N[C@@H](CCCNC(=N)N)C(=O)N[C@@H](CC(C)C)C(=O)N[C@@H](CCCNC(=N)N)C(=O)N[C@@H](Cc2ccc(O)cc2)C(N)=O)NC(=O)[C@@H]2CCCN2C(=O)[C@@H](NC(=O)[C@@H](N)[C@@H](C)CC)CCC(=O)NCC(C(=O)N[C@@H](Cc2ccc(O)cc2)C(=O)N[C@@H](CCCNC(=N)N)C(=O)N[C@@H](CC(C)C)C(=O)N[C@@H](CCCNC(=N)N)C(=O)N[C@@H](Cc2ccc(O)cc2)C(N)=O)NC(=O)[C@@H]2CCCN2C1=O (stereo not given in full) (I: H-IEP[ξDap]YRLRY-NH2 / II: H-IEP[ξDap]YRLRY-NH2; amide I:2-II:4, I:4-II:2) | – | – | 0.36 | – | – | – | – | – | – | – | – | – | – | – | – | – | – | – | –
7 | Ac-RGWRLRY-NH2 | 51 | – | 2.8 | – | 160 | – | 110 | – | > 1070 | > 3000 | > 3160 | > 3600 | > 10000 | > 10000 | > 360 | – | > 1000 | – | > 1000
8 | Ac-RFRLRY-NH2 | 320 | – | 8.9 | 8.71 | 550 | – | 550 | – | > 1100 | – | > 10000 | > 110 | > 1000 | > 1000 | > 110 | – | > 1000 | > 10000 | > 1000
9 | Ac-RGYRLRW-NH2 | 360 | – | 38 | 30.9 | 520 | – | 380 | – | 26 | – | > 1000 | > 26 | > 1000 | > 1000 | > 26 | – | > 1000 | > 1000 | > 1000
10 | CC(C)C[C@H](NC(=O)[C@@H](N)CCCNC(=N)N)C(=O)N[C@@H](CCCNC(=N)N)C(=O)N[C@H](Cc1ccc(O)cc1)C(N)=O | > 30000 | > 31600 | 1500 | – | > 30000 | > 31600 | – | – | – | – | – | – | – | – | – | – | – | – | –
11 | CC(C)C[C@H](NC(=O)[C@H](CCCNC(=N)N)NC(=O)[C@H](Cc1ccc(O)cc1)NC(=O)[C@@H](N)CCCNC(=N)N)C(=O)N[C@@H](CCCNC(=N)N)C(=O)N[C@@H](Cc1ccc(O)cc1)C(N)=O | 38 | – | 2 | – | 51 | – | 100 | – | > 5000 | – | > 10000 | > 1500 | > 3000 | > 3160 | > 1500 | > 3000 | > 3160 | > 10000 | –
12 | CC(C)C[C@H](NC(=O)[C@H](CCCNC(=N)N)NC(=O)[C@H](Cc1ccc(O)cc1)NC(=O)[C@@H](N)CCCNC(=N)N)C(=O)N[C@@H](CCCNC(N)=O)C(=O)N[C@@H](Cc1ccc(O)cc1)C(N)=O | 930 | – | 63 | 56.2 | 1070 | – | – | – | – | – | – | – | – | – | > 48 | > 3000 | > 3160 | – | –
13 | H-RYRGRY-NH2 | > 30000 | > 31600 | 190 | – | > 30000 | > 31600 | > 30000 | > 31600 | – | – | – | – | – | – | – | – | – | – | –
14 | CC(C)C[C@H](NC(=O)[C@H](N)CCCNC(=N)N)C(=O)N[C@@H](CCCNC(=N)N)C(=O)N[C@@H](Cc1ccc(O)cc1)C(N)=O | 4800 | 4680 | 7.4 | – | 2400 | – | – | – | – | – | – | – | – | – | – | – | – | – | –
15 | CC(=O)N[C@@H](CCCNC(=N)N)C(=O)N[C@@H](Cc1ccc(O)cc1)C(=O)N[C@@H](CCCNC(N)=O)C(=O)N[C@@H](CC(C)C)C(=O)N[C@@H](CCCNC(=N)N)C(=O)N[C@@H](Cc1ccc(O)cc1)C(N)=O | > 30000 | > 31600 | 120 | – | > 30000 | > 31600 | > 30000 | > 31600 | – | – | – | – | – | – | – | – | – | – | –
16 | CN[C@@H](CCCNC(=N)N)C(=O)N[C@@H](CC(C)C)C(=O)N[C@@H](CCCNC(=N)N)C(=O)N[C@@H](Cc1ccc(O)cc1)C(N)=O | 1200 | – | 3.9 | – | 2500 | – | – | – | > 260 | – | > 1000 | > 2600 | > 10000 | > 10000 | > 770 | > 3000 | > 3160 | > 1000 | –
17 | N=C(N)NCCC[C@H](NC(=O)[C@H](Cc1c[nH]c2ccccc12)NC(=O)[C@@H](N)CCCNC(=N)N)C(=O)N[C@@H](Cc1ccc(O)cc1)C(N)=O (H-RWRY-NH2) | > 30000 | > 31600 | 350 | – | > 30000 | > 31600 | > 30000 | > 31600 | – | – | – | – | – | – | – | – | – | – | –
18 | CC(C)C[C@@H](NC(=O)[C@@H](N)CCCNC(=N)N)C(=O)N[C@@H](CCCNC(=N)N)C(=O)N[C@@H](Cc1ccc(O)cc1)C(N)=O | > 30000 | > 31600 | 93 | – | > 30000 | > 31600 | – | – | – | – | – | – | – | – | – | – | – | – | –
